Measurements as given in US8435556B2, “Transdermal delivery of cannabidiol” (Alltranz, LLC, priority 2005, dated 2013).
“And” between values parts separate entries of the source, which are not always exact repeats. Equal values may be shown once.

Experiments:
[1] = plasma THC and CBD concentrations after separate and co-administration
[2] = in vitro permeation of Δ^9-tetrahydrocannabinol across human skin with various receiver solutions
[3] = human skin permeation of cannabidiol with permeation enhancers; format: in vitro ADME; conditions: enhancer 6% v/v
Excerpt: The aim of the experiment was to evaluate the effect of permeation enhancers on human skin permeation of cannabidiol (CBD). The following permeation enhancers were used in the study: • LAUROGLYCOL 90-(Propylene glycol monolaurate 90%)-LG-90 • TRANSCUTOL HP (Purified diethylene glycol monoethyl ether)-TC-HP • LABRAFIL® M 1944 CS (Oleoyl Macrogolglycerides)-LF • LABRASOL® (Caprylocaproyl Macrogolglycerides)-LB • SUPER REFINED® NOVOL NF (Oleyl Alcohol)-OA
A high-pressure liquid chromatography (HPLC) assay was used for the analysis of CBD in the samples. The HPLC system consisted of a Waters 717 plus Autosampler, Waters 1525 Binary HPLC Pump and Waters 2487 Dual λ Absorbance Detector with Waters Breeze software. A Brownlee C-18 reversed-phase Spheri-5 μm column (220×4.6 mm) with a C-18 reversed phase 7 μm guard column (15×3.2 mm) was used with the UV detector set at a wavelength of 215 nm. The mobile phase was comprised of acetonitrile: 25 mM phosphate buffer with 0.1% triethylamine pH 3.0 (80:20). The flow rate of the mobile phase was […] and 100 μL of the sample was injected onto the column.
Human skin harvested during abdominoplasty was used for the diffusion studies. Skin sections were obtained by using a Padgett Instruments® dermatome set to 250 microns and stored at −20° C. […] Trans-epidermal water loss was measured (Evaporimeter EP1™, ServoMed, Sweden) after securing the skin in the cells. Pieces of skin with readings below 10 g/m^2/h were used for the diffusion studies. […] An excess quantity of CBD was added to the donor vehicle (propylene glycol:Hanks' buffer (80:20)) solution with and without permeation enhancers at 6% v/v, sonicated for 10 min, and then applied onto the skin. Excess quantity of the drug was used in the donor compartment throughout the diffusion experiment in order to maintain maximum and constant chemical potential of the drug in the donor vehicle. […]
Drug disposition in the skin samples was measured at the completion of the 48 h experiment. […] Samples were analyzed by HPLC to determine CBD content in […] (pmol) of drug per gram of wet tissue weight. […]

[4] = full-thickness human skin, Touitou et al. 1988; cited from earlier work
[5] = skin permeation study of WIN 55,212-2 in flow-through diffusion cells; format: in vitro ADME, human
Method: The skin permeation study was carried out using skin excised during abdominal reduction surgery. The skin sample was harvested from the abdomen using a Padgett dermatome set to 250 μm; the skin sample was frozen at −20° C. for one week. The frozen skin sample was thawed and used at the 250 μm split-thickness for the diffusion study. Three PermeGear In-Line Flow Cells were used for the skin permeation study. The receiver fluid was 6% BRIJ® 98 (Polyoxyethylene 20 Oleyl Ether), in order to increase the partitioning of this extremely lipophilic drug into the receiver. The receiver fluid was pumped through the diffusion cells at a rate of one milliliter per hour. The receiver samples were refrigerated until HPLC analysis. The temperature of the diffusion cells was maintained at 32° C. with a circulating water bath. The diffusion experiment was initiated by charging the donor compartment with 0.25 mL of WIN 55,212-2 Mesylate in propylene glycol (50 mg/mL).
Samples were analyzed using a HPLC system which consisted of a Waters 717 Autosampler, 501 Pumps, and a 484 Tunable UV Absorbance Detector with Millennium Chromatography Software. A reversed phase Beckman 5 μm particle 4.6 mm×25 cm C-18 column was used with the UV detector set at a wavelength of 215 nm. The mobile phase consisted of 0.05 M monobasic potassium phosphate:acetonitrile (300 mL:700 mL) at a flow rate of 2 mL/min.
Skin permeation data were plotted as the cumulative amount of drug collected in the receiver compartment as a function of time. The lag times and steady-state fluxes were calculated using the terminal, linear portions of these curves. The slopes (Js) through these curves were determined using linear regression analysis. In all cases, the coefficients of determination for the lines were >0.99.
Lag times were determined by extrapolating the steady-state curves to the X-axis. The permeability coefficient was calculated from Fick's law of diffusion: […]

Structure (SMILES): CCCCCc1cc(O)c2c(c1)OC(C)(C)[C@@H]1CCC(C)=C[C@@H]21 [Δ^9-tetrahydrocannabinol]
- THC plasma concentration, coadministered with cannabidiol vs alone ([1]; FIG. 11): higher both initially and over time when coadministered
- permeability difference of tape stripped skin relative to intact skin ([2]; 6% BRIJ 98 receiver solution): six fold
- permeability enhancement with 6% BSA relative to 4% BSA ([2]; four subjects, except subject 3): 20-50%
- mean lag time ([2]; intact skin): 18.0 ± 3.4 h
- permeability in presence of BRIJ 98 solution relative to BSA solution ([2]; receiver BRIJ 98 (6%) vs BSA (4%), five subjects, except subject 4): 2-5 fold
- mean lag time ([2]; stripped skin): 7.8 ± 3.9 h
- permeability with 6% BRIJ 98 vs 0.5% BRIJ 98 receiver solution ([2]; three subjects, differences not statistically significant): similar
- permeability of tape stripped skin relative to intact skin ([2]; various receiver solutions): 2-3 times

Structure (SMILES): C=C(C)C1CCC(C)=CC1c1c(O)cc(CCCCC)cc1O (centres unmarked) [CBD, 2-[3-methyl-6-(1-methylethenyl)-2-cyclohexen-1-yl]-5-pentyl-1,3-benzenediol]
- Cumulative amount permeated at 48 h ([3]; 48 h): 193.21 ± 22.77 nmol and 338.11 ± 73.09 nmol
- Lag Time ([3]; donor propylene glycol:Hanks' buffer (80:20)): 14.19 ± 1.59 h and 9.43 ± 2.47 h
- Flux ([3]; steady state, donor propylene glycol:Hanks' buffer (80:20) with excess CBD, receiver with 40% PEG 400, 32° C.): 9.16 ± 1.41 nmol/cm^2/h
- cannabidiol plasma concentration, coadministered with THC vs alone ([1]; FIG. 12): higher both initially and over time when coadministered

Structure (SMILES): CCCCCc1cc(O)c2c(c1)OC(C)(C)[C@@H]1CC=C(C)C[C@@H]21 [Δ^8-THC, Δ^8-tetrahydrocannabinol]
- flux rate [4]: 3.5 μg/cm^2/hr
- permeability coefficient [4]: 0.036 ×10⁻⁶ cm/s

Structure (SMILES): Cc1c(C(=O)c2cccc3ccccc23)c2cccc3c2n1[C@H](CN1CCOCC1)CO3 [WIN 55,212-2, (R)-(+)-[2,3-dihydro-5-methyl-3-(4-morpholinylmethyl)-pyrrolo[1,2,3-de]-1,4-benzoxazin-6-yl]-1-naphthalenyl-methanone]
- diffusion lag time ([5]; 250 μm split-thickness skin, donor 50 mg/mL in propylene glycol, receiver 6% BRIJ 98, 32° C., 48 h): 24 h
- drug depletion from the donor compartment ([5]; 48 h, donor not saturated): < 1%
- mean flux ([5]; steady state, donor 50 mg/mL in propylene glycol, receiver 6% BRIJ 98, n=3): 2.6 μg/cm^2/h
